Measured values reported in US4701465A, “N-acylpyrrolidine derivative and synthesis and use thereof” (Suntory Limited, priority 1985, dated 1987).
Blank lines part the entries; values can stand above or below the compound they belong to.

Experiments:
[1] = biological target: prolyl endopeptidase (Elizabethkingia meningoseptica, UniProt P27028); test: Measurement of anti-prolyl endopeptidase activity; assay type: biochemical; conditions: substrate Z-glycyl-proline-β-naphthylamide, 0.1M phosphate buffer pH 7.06, absorbance at 410 nm
Protocol: The method of Yoshimoto and Tsuru (T. Yoshimoto and D. Tsuru, Agr. Biol. Chem. 42, 2417, 1978) was used to measure the anti-prolyl endopeptidase activities of compounds of the present invention. A mixture of 0.0025M Z-glycyl-proline-β-naphthylamide (0.25 ml), 0.1M phosphate buffer (pH, 7.06; 0.99 ml) and a solution of a particular anti-prolyl endopeptidase compound (0.01 ml) was incubated in a test tube at 37° C. for 3 minutes. Thereafter, 0.1 ml of a solution of prolyl endopeptidase (0.2 U/ml) was added and the mixture was heated at 35° C. for 10 minutes. After the reaction, 2.0 ml of Triton X-100 in 1M acetate buffer (pH, 4.0) was added to the reaction mixture until the final concentration of the surfactant was 10%. The mixture was left at room temperature for 15 minutes and the absorbance (a) at 410 nm was measured.
A sample for a blind test was prepared by using the buffer instead of the anti-prolyl endopeptidase compound and its absorbance (b) was also measured. The percent inhibition of prolyl endopeptidase was calculated by the formula: ((b-a)/b)×100, and the amount of a specific compound to achieve 50% inhibition IC50) was determined.

[2] = test system: experimental amnesia caused in rats by scopolamine; test: Preventive effect against experimental amnesia caused in rats by scopolamine (passive avoidance learning, intraperitoneal administration); assay type: in vivo, Wister male rats; conditions: 1 mg/kg i.p.; for No. of amnesic rats/No. of rats tested / percentage amnesia / Avoidance time 24 hrs. later / Avoidance time 48 hrs. later: scopolamine 3 mg/kg i.p. after learning; for preventive effect against scopolamine amnesia (in words): rats
Protocol: Several of the anti-prolyl endopeptidase compounds of the present invention were checked for their ability to prevent the inhibition of long-term memory fixation by scopolamine. Solutions of physiological saline that contained selected compounds of the present inventions in an amount of 1 mg/kg were administered intraperitoneally to Wister male rats (100-120 g). One hour after the administration, electric shocks were applied to the rats so that they would acquire passive avoidance learning. Immediately thereafter, scopolamine was administered intraperitoneally to each rat in an amount of 3 mg per kg of body weight.
The result of the test was assessed both 24 hours and 48 hours after the administration of scopolamine. The number of amnesic rats and of sound rats was counted for both the control group (rats which were not given the test compounds but to which scopolamine and physiological saline alone were administered intraperitoneally) and the treated group (rats to which both the test compound and scopolamine were administered).

Sequence of prolyl endopeptidase (P27028 21-705): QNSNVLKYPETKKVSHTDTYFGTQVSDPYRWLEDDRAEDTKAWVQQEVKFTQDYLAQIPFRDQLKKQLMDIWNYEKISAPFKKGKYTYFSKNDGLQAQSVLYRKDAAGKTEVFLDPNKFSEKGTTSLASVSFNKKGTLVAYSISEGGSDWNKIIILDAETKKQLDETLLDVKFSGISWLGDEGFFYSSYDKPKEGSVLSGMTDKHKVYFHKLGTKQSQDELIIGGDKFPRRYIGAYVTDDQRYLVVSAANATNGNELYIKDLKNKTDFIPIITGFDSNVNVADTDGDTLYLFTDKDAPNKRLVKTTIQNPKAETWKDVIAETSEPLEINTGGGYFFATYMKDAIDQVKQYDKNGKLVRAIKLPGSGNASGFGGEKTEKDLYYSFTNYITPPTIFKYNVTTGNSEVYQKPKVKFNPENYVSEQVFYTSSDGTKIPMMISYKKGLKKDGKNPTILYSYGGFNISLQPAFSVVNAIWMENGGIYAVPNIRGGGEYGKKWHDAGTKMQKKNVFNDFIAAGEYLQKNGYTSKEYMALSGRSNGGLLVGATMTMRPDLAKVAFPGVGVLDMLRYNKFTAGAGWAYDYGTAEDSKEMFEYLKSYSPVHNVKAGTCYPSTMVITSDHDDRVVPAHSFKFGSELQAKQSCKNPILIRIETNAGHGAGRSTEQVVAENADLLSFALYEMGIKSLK

SMILES: COC(=O)C1CCCN1C(=O)Cc1ccc(OC)cc1 (centres unmarked) [Compound No. 1]
- IC50 (amount of compound to achieve 50% inhibition of prolyl endopeptidase) [1]: 80 μg/test tube

SMILES: COC(=O)C1CCCN1C(=O)CCc1ccc(OC)cc1 (centres unmarked) [Compound No. 2]
- IC50 (amount of compound to achieve 50% inhibition of prolyl endopeptidase) [1]: 51 μg/test tube

SMILES: COC(=O)[C@@H]1CCCN1C(=O)CCOc1ccccc1 [Compound No. 19, N-(3-phenoxy)propionyl-proline methyl ester]
- IC50 (amount of compound to achieve 50% inhibition of prolyl endopeptidase) [1]: 60 μg/test tube

SMILES: O=CC1CCCN1C(=O)CCOc1ccccc1 (centres unmarked) [Compound No. 21, N-(3-phenoxy)propionyl-prolinal]
- IC50 (amount of compound to achieve 50% inhibition of prolyl endopeptidase) [1]: 2.5 μg/test tube

SMILES: COc1ccc(CCC(=O)N2CCCC2C=O)cc1 (centres unmarked) [SUAM1050]
- No. of amnesic rats/No. of rats tested [2]: 5/10
- percentage amnesia [2]: 50%
- Avoidance time 24 hrs. later [2]: 198.2 s
- Avoidance time 48 hrs. later [2]: 203.5 s

SMILES: COc1ccc(CCCC(=O)N2CCCC2C=O)cc1 (centres unmarked) [SUAM1051]
- preventive effect against scopolamine amnesia (in words) [2]: particularly remarkable effects
- No. of amnesic rats/No. of rats tested [2]: 0/10
- percentage amnesia [2]: 0%
- Avoidance time 24 hrs. later [2]: 300.0 s
- Avoidance time 48 hrs. later [2]: 300.0 s

SMILES: O=CC1CCCN1C(=O)Cc1ccc(Cl)cc1 (centres unmarked) [SUAM1052]
- No. of amnesic rats/No. of rats tested [2]: 3/10
- percentage amnesia [2]: 30%
- Avoidance time 24 hrs. later [2]: 223.1 s
- Avoidance time 48 hrs. later [2]: 214.8 s

SMILES: COc1ccc(/C=C/C(=O)N2CCCC2C=O)cc1 (centres unmarked) [SUAM1054]
- No. of amnesic rats/No. of rats tested [2]: 5/10
- percentage amnesia [2]: 50%
- Avoidance time 24 hrs. later [2]: 204.5 s
- Avoidance time 48 hrs. later [2]: 199.7 s

SMILES: O=CC1CCCN1C(=O)CCC(=O)c1ccccc1 (centres unmarked) [SUAM1055]
- preventive effect against scopolamine amnesia (in words) [2]: particularly remarkable effects
- No. of amnesic rats/No. of rats tested [2]: 0/10
- percentage amnesia [2]: 0%
- Avoidance time 24 hrs. later [2]: 300.0 s
- Avoidance time 48 hrs. later [2]: 300.0 s

SMILES: O=CC1CCCN1C(=O)CC(c1ccccc1)c1ccccc1 (centres unmarked) [SUAM1065]
- preventive effect against scopolamine amnesia (in words) [2]: particularly remarkable effects
- No. of amnesic rats/No. of rats tested [2]: 1/10
- percentage amnesia [2]: 10%
- Avoidance time 24 hrs. later [2]: 284.6 s
- Avoidance time 48 hrs. later [2]: 267.2 s

SMILES: CCC(C(=O)N1CCCC1C=O)c1ccccc1 (centres unmarked) [SUAM1066]
- No. of amnesic rats/No. of rats tested [2]: 3/10
- percentage amnesia [2]: 30%
- Avoidance time 24 hrs. later [2]: 268.4 s
- Avoidance time 48 hrs. later [2]: 205.4 s

SMILES: O=CC1CCCN1C(=O)CCC(c1ccccc1)c1ccccc1 (centres unmarked) [SUAM1090]
- No. of amnesic rats/No. of rats tested [2]: 4/10
- percentage amnesia [2]: 40%
- Avoidance time 24 hrs. later [2]: 232.8 s
- Avoidance time 48 hrs. later [2]: 202.36 s

SMILES: COC(=O)C1CCCN1C(=O)CCCc1ccc(OC)cc1 (centres unmarked) [compound 3]
- IC50 (amount of compound to achieve 50% inhibition of prolyl endopeptidase) [1]: 180 μg/test tube

SMILES: COc1ccc(CC(=O)N2CCCC2C=O)cc1 (centres unmarked) [compound 7]
- IC50 (amount of compound to achieve 50% inhibition of prolyl endopeptidase) [1]: 3.0 μg/test tube

SMILES: COc1ccc(CCC(=O)N2CCCC2C=O)cc1 (centres unmarked) [compound 8]
- IC50 (amount of compound to achieve 50% inhibition of prolyl endopeptidase) [1]: 1.0 μg/test tube

SMILES: COc1ccc(CCCC(=O)N2CCCC2C=O)cc1 (centres unmarked) [compound 9]
- IC50 (amount of compound to achieve 50% inhibition of prolyl endopeptidase) [1]: 0.05 μg/test tube

SMILES: COC(=O)C1CCCN1C(=O)Cc1ccc(Cl)cc1 (centres unmarked) [compound 10]
- IC50 (amount of compound to achieve 50% inhibition of prolyl endopeptidase) [1]: 72 μg/test tube

SMILES: COC(=O)C1CCCN1C(=O)CCc1ccc(Cl)cc1 (centres unmarked) [compound 11]
- IC50 (amount of compound to achieve 50% inhibition of prolyl endopeptidase) [1]: 30 μg/test tube

SMILES: COC(=O)C1CCCN1C(=O)CCCc1ccc(Cl)cc1 (centres unmarked) [compound 12]
- IC50 (amount of compound to achieve 50% inhibition of prolyl endopeptidase) [1]: 50 μg/test tube

SMILES: O=CC1CCCN1C(=O)Cc1ccc(Cl)cc1 (centres unmarked) [compound 16]
- IC50 (amount of compound to achieve 50% inhibition of prolyl endopeptidase) [1]: 0.5 μg/test tube

SMILES: O=CC1CCCN1C(=O)CCc1ccc(Cl)cc1 (centres unmarked) [compound 17]
- IC50 (amount of compound to achieve 50% inhibition of prolyl endopeptidase) [1]: 1.0 μg/test tube

Second part, the compound after the results:

- IC50 (amount of compound to achieve 50% inhibition of prolyl endopeptidase) [1]: 1.5 μg/test tube
SMILES: O=CC1CCCN1C(=O)CCCc1ccc(Cl)cc1 (centres unmarked) [compound 18]

- IC50 (amount of compound to achieve 50% inhibition of prolyl endopeptidase) [1]: 250 μg/test tube
SMILES: COC(=O)C1CCCN1C(=O)CC(c1ccccc1)c1ccccc1 (centres unmarked) [compound 22]

- IC50 (amount of compound to achieve 50% inhibition of prolyl endopeptidase) [1]: 0.1 μg/test tube
SMILES: O=CC1CCCN1C(=O)CC(c1ccccc1)c1ccccc1 (centres unmarked) [compound 24]

- IC50 (amount of compound to achieve 50% inhibition of prolyl endopeptidase) [1]: 510 μg/test tube
SMILES: CCC(C(=O)N1CCCC1C(=O)OC)c1ccccc1 (centres unmarked) [compound 25]

- IC50 (amount of compound to achieve 50% inhibition of prolyl endopeptidase) [1]: 0.2 μg/test tube
SMILES: CCC(C(=O)N1CCCC1C=O)c1ccccc1 (centres unmarked) [compound 27]

- IC50 (amount of compound to achieve 50% inhibition of prolyl endopeptidase) [1]: 200 μg/test tube
SMILES: COC(=O)C1CCCN1C(=O)CCC(=O)c1ccccc1 (centres unmarked) [compound 28]

- IC50 (amount of compound to achieve 50% inhibition of prolyl endopeptidase) [1]: 0.1 μg/test tube
SMILES: O=CC1CCCN1C(=O)CCC(=O)c1ccccc1 (centres unmarked) [compound 30]

- IC50 (amount of compound to achieve 50% inhibition of prolyl endopeptidase) [1]: > 200 μg/test tube
SMILES: COC(=O)C1CCCN1C(=O)C(CCc1ccccc1)C(C)C (centres unmarked) [compound 31]

- IC50 (amount of compound to achieve 50% inhibition of prolyl endopeptidase) [1]: > 5 μg/test tube
SMILES: CC(C)C(CCc1ccccc1)C(=O)N1CCCC1C=O (centres unmarked) [compound 33]

- IC50 (amount of compound to achieve 50% inhibition of prolyl endopeptidase) [1]: 80 μg/test tube
SMILES: COC(=O)C1CCCN1C(=O)C(C)CCc1ccccc1 (centres unmarked) [compound 34]

- IC50 (amount of compound to achieve 50% inhibition of prolyl endopeptidase) [1]: 1.0 μg/test tube
SMILES: CC(CCc1ccccc1)C(=O)N1CCCC1C=O (centres unmarked) [compound 36]

- IC50 (amount of compound to achieve 50% inhibition of prolyl endopeptidase) [1]: 80 μg/test tube
SMILES: COC(=O)C1CCCN1C(=O)/C=C/c1ccc(OC)cc1 (centres unmarked) [compound 37]

- IC50 (amount of compound to achieve 50% inhibition of prolyl endopeptidase) [1]: 0.2 μg/test tube
SMILES: COc1ccc(/C=C/C(=O)N2CCCC2C=O)cc1 (centres unmarked) [compound 39]

- IC50 (amount of compound to achieve 50% inhibition of prolyl endopeptidase) [1]: 0.35 μg/test tube
SMILES: O=CC1CCCN1C(=O)CCC(c1ccccc1)c1ccccc1 (centres unmarked) [compound 42]
